Results on two molecules are retold here after US20050048067A1, “Peptides capable of modulating immune response” (priority 2001, published 2005).

Where two headings read alike, the source gives them in different places.

One test concerns PHA-stimulated PBMC. Nature of the test: Radioactive proliferation assay, incorporation of 3H-thymidine, TIRC7-peptides. It is filed as cell-based, human. As to conditions: PHA stimulation, 48 h, 3H-thymidine incorporation. As to the method:
PBMC of healthy donors were isolated according to the Ficoll-Paque density centrifugation protocol. Samples of 50000 PBMC's/well were stimulated with PHA (1 μg/ml) and incubated for 48 h at 5% CO2, 37° C. in presence of TIRC7-peptides (see FIG. 4(B)) and controls (BSA) in a total volume of […]. Samples were run in triplicates on 96 well-microtiter-plates (MTP's). After 48 h 0.5 μCi ^3H-thymidine per well were added and the cells were reincubated for additional 18 h. Cells were harvested and lysed using a cell harvester and collected on nitrocellulose-filter-MTP's. Plates were dried at room temperature for 3 h. To enhance the radioactive signal produced by the samples a scintillation fluid was added and counts per minute were measured with a beta counter.
(Incorporation of labelled thymidine or its analogues reports DNA synthesis.)

In another test the test system is activated T-cells. The following applies: alloactivation in mixed lymphocyte culture (MLR) or mitogens, Utku et al., Immunity 1998, cited from earlier work.

With “P4: TIRC7-derived peptide (FIG. 4(B)), the one of 6 without significant inhibition of proliferation (VEFQNKFYSGTGYK; listed as Homo sapiens)”, the “inhibition of proliferation of PHA-stimulated PBMC” value in the test with PHA-stimulated PBMC (FIG. 5) is given as “except peptide P4 all TIRC7-peptides inhibited proliferation”; in the test with PHA-stimulated PBMC (FIG. 5, listed as SEQ ID NO: 11), “weaker if any activity”.

B1: TIRC7 protein: in vitro translated T-cell immune response cDNA 7 (TIRC7) protein (protein, UniProt Q13488 1-830, looked up)
V-type proton ATPase 116 kDa …: MGSMFRSEEVALVQLFLPTAAAYTCVSRLGELGLVEFRDLNASVSAFQRRFVVDVRRCEELEKTFTFLQEEVRRAGLVLPPPKGRLPAPPPRDLLRIQEETERLAQELRDVRGNQQALRAQLHQLQLHAAVLRQGHEPQLAAAHTDGASERTPLLQAPGGPHQDLRVNFVAGAVEPHKAPALERLLWRACRGFLIASFRELEQPLEHPVTGEPATWMTFLISYWGEQIGQKIRKITDCFHCHVFPFLQQEEARLGALQQLQQQSQELQEVLGETERFLSQVLGRVLQLLPPGQVQVHKMKAVYLALNQCSVSTTHKCLIAEAWCSVRDLPALQEALRDSSMEEGVSAVAHRIPCRDMPPTLIRTNRFTASFQGIVDAYGVGRYQEVNPAPYTIITFPFLFAVMFGDVGHGLLMFLFALAMVLAENRPAVKAAQNEIWQTFFRGRYLLLLMGLFSIYTGFIYNECFSRATSIFPSGWSVAAMANQSGWSDAFLAQHTMLTLDPNVTGVFLGPYPFGIDPIWSLAANHLSFLNSFKMKMSVILGVVHMAFGVVLGVFNHVHFGQRHRLLLETLPELTFLLGLFGYLVFLVIYKWLCVWAARAASAPSILIHFINMFLFSHSPSNRLLYPRQEVVQATLVVLALAMVPILLLGTPLHLLHRHRRRLRRRPADRQEENKAGLLDLPDASVNGWSSDEEKAGGLDDEEEAELVPSEVLMHQAIHTIEFCLGCVSNTASYLRLWALSLAHAQLSEVLWAMVMRIGLGLGREVGVAAVVLVPIFAAFAVMTVAILLVMEGLSAFLHALRLHWVEFQNKFYSGTGYKLSPFTFAATDD
modifications: in vitro translated
notes: in vitro translated T-cell immune response cDNA 7 (TIRC7) protein
For the molecule B1, the entries for the “suppression of proliferation of T-cells” value in the test with activated T-cells and with activated T-cells (listed as protein TIRC7) were “efficiently suppress in a dose dependent manner” and “signifincantly suppressed”, respectively.
